The values that follow come from patent publication EP1351977B1, “ANTIMICROBIAL PSEUDOPEPTIDES” (INSTITUT NATIONAL DE LA RECHERCHE AGRONOMIQUE (INRA), priority 2001, dated 2004).

Like-named read-outs stand apart in the source and are kept apart here. Ends that are not written are not given here.

What all share (assay type): cell-based
One assay relates to Serratia entomophila. Description: Bacterial growth inhibition test in Petri dish (solid medium), MIC. Conditions: MIC extrapolated from inhibition diameter vs log10 concentration.
A further assay has as its system Septoria tritici sp. Description: Antifungal growth inhibition test in liquid medium.
The next assay relates to Cladosporium myc. Description: Antifungal growth inhibition test in liquid medium.
The subject of another assay is Pseudomonas fluorescens. Description: Bacterial growth inhibition test in Petri dish (solid medium), MIC. Conditions: MIC extrapolated from inhibition diameter vs log10 concentration.
A further assay deals with Escherichia coli CIP548. The assay is described as above. Conditions: MIC extrapolated from inhibition diameter vs log10 concentration.
A further assay deals with Staphylococcus aureus. Described as above. Conditions: MIC extrapolated from inhibition diameter vs log10 concentration.
A further assay concerns Alternaria brassicae. In words: Antifungal growth inhibition test in liquid medium.
The subject of assay [1] is Proteus vulgaris CIP58.60. Description: Bacterial growth inhibition test in Petri dish (solid medium), MIC. Conditions: MIC extrapolated from inhibition diameter vs log10 concentration.
Another assay deals with Salmonella sp. The assay is described as above. Conditions: MIC extrapolated from inhibition diameter vs log10 concentration. The protocol: Deux tests ont été utilisés pour mesurer l'activité antibactérienne des pseudopeptides, un test d'inhibition de la croissance bactérienne en microplaques (de 96 puits) en milieu liquide et un test d'inhibition de la croissance bactérienne en boîte de Pétri en milieu solide. • * Test en microplaques: La culture bactérienne à tester est prélevée en phase exponentielle, puis diluée au 1/500^ème dans du milieu liquide TSB frais. Chaque puits de la microplaque est rempli avec 100 µl de suspension bactérienne diluée. Dans le premier puits, 100 µl de l'échantillon de pseudopeptide à tester est ajouté à la suspension bactérienne, puis l'échantillon est dilué de 2 en 2 en transférant d'un puits à l'autre 100 µl de suspension. La lecture de la microplaque se fait en mesurant la densité optique à […] (DO600nm) après 24h d'incubation à 28°C ou 37°C selon les bactéries cibles. Connaissant la concentration en pseudopeptide de l'échantillon de départ, ce test permet de déterminer la valeur de la CMI (Concentration Minimale d'Inhibition de la croissance bactérienne). Dans ce test, la CMI correspond à la concentration de l'échantillon pour lequel la DO600nm est inférieure à celle du témoin de culture. • * Test en boîte de Pétri: La culture bactérienne à tester est prélevée en phase exponentielle, puis incorporée à 10 ml d'une gélose dite "sous-couche" (Agarose 1% poids/vol; NaCl 100 mM; Trypcase 0.03 % poids/vol; Tampon phosphate 10 mM pH7.4) à raison de 2.10^5 bactéries/ml. Le mélange est coulé dans une boîte de Pétri ordinaire. 9 puits d'environ 10 µl de volume sont formés dans la "sous-couche" à l'aide d'un embout de pipette stérile de 10 ml. Ces puits sont remplis avec une série de dilutions des pseudopeptides à tester (concentration initiale 500 µg/ml, et dilution de deux en deux jusqu'à 1,95 µg/ml). Après diffusion à température ambiante pendant 2h, une gélose dite "sur-couche" (Agarose 1% wt/vol; Trypcase 6 % wt/vol; Tampon phosphate 10 mM pH7.4) est ajoutée sur la sous-couche à raison de 5 à 10 ml. Après solidification, l'ensemble est mis à incuber pendant une nuit. Le diamètre d'inhibition de la culture bactérienne autour de chaque puits est mesuré en mm; il existe une relation linéaire entre le diamètre d'inhibition et le log10 de la concentration en pseudopeptide qui permet de déterminer par extrapolation la valeur de la CMI.
Une première série de résultats a été obtenue en utilisant le test en boîte de Pétri vis-à-vis de bactéries non pathogènes issues de la collection de Travaux pratiques du laboratoire de Pathologie Comparée de l'Université de Montpellier (France). Dans cette série, les pseudopeptides des pics 5, 7, 8,10 et 11 ont été testés (Tableau 4).

For the next assay, the system named is Piricularia oryzae sp.
In a further assay the test system is Bacillus megaterium. Description: Bacterial growth inhibition test in Petri dish (solid medium), MIC. Conditions: MIC extrapolated from inhibition diameter vs log10 concentration.
A further assay concerns Cladosporium sp. In words: Antifungal growth inhibition test in liquid medium.
For assay [2], the system named is Helminthosporium teres sp. Description: Antifungal growth inhibition test in liquid medium.
In a further assay the test system is Rhizoctonia solani myc. Description: Antifungal growth inhibition test in liquid medium.
The subject of a further assay is Klebsiella pneumoniae. In words: Bacterial growth inhibition test in Petri dish (solid medium), MIC. Conditions: MIC extrapolated from inhibition diameter vs log10 concentration.
The test system of another assay is Botrytis cinerea sp. Description: Antifungal growth inhibition test in liquid medium.
The test system of a further assay is Fusarium culmorum sp. In words: Antifungal growth inhibition test in liquid medium. An excerpt:
(§1) Les composés des pics 5, 7 et 8 de la figure 1 ont été testées vis-à-vis d'un ensemble de champignons phytopathogènes. Trois doses (10, 20, et 40 ppm) ont été employées pour chacun des composés.
(§2) L'activité antifongique a été détectée par un test d'inhibition de croissance en milieu liquide. Les spores des champignons à tester ont été mises en suspension dans un milieu de culture de type "Pomme de terre-Glucose". De préférence, on utilise 12 g de milieu Potato Dextrose Broth (Difco) pour 1 litre d'eau déminéralisée. Deux antibiotiques ont été rajoutés au milieu de culture: la tétracycline (concentration finale de 10 µg/ml) et la céfotaxime (100 µg/ml). On dépose 10 µl de chaque composé à tester dans des plaques de microtitration en présence de 90 µl de milieu de culture contenant les spores (à une concentration finale de 10^4 spores/ml). L'incubation a été réalisée en chambre humide à 30°C durant 48 heures. La croissance fongique a été observée au microscope photonique après 24 h et quantifiée après 48 heures par mesure de l'absorbance à 600 nm à l'aide d'un spectrophotomètre lecteur de plaque de microtitration. L'activité des composés contre les champignons phytopathogènes est exprimée par un pourcentage d'inhibition de croissance correspondant à 100 x (1 - absorbance avec produit/ absorbance du témoin sans produit), l'absorbance étant mesurée à 600 nm, 5 jours après le début de l'expérience.

In the next assay the test system is Phytophthora myc. In words: Antifungal growth inhibition test in liquid medium.
Source text: as §1, §2

The test system of another assay is Botrytis cinerea myc. Description: Antifungal growth inhibition test in liquid medium.
Assay [3] deals with Staphylococcus epidermidis. Description: Bacterial growth inhibition test in Petri dish (solid medium), MIC. Conditions: MIC extrapolated from inhibition diameter vs log10 concentration.

As to “Composé 7: pseudopeptide du pic n° 7 de Xenorhabdus nematophilus F1; Famille 2: Lys Lys Lys Lys Arg Gly; 1080 Da; isomère de masse du pic 11 (KKKKRG; also: pseudopeptide modifications)”, the CMI with Serratia entomophila is 60 µg/mL; with Pseudomonas fluorescens, 1,5 µg/ml; with Escherichia coli CIP548, 15 µg/mL; in the assay with Staphylococcus aureus it was 15 µg/mL; in assay [1], 100 µg/mL; in the assay on Salmonella sp., 15 µg/mL. For the same substance, the CMI was 1,5 µg/ml with Bacillus megaterium and 30 µg/mL in the assay on Klebsiella pneumoniae. The “pourcentage d'inhibition de croissance” value amounted to 0% in the assay on Septoria tritici sp (10 ppm); 86% in the assay on Septoria tritici sp (20 ppm); 89% in the assay with Septoria tritici sp (40 ppm); 0% in the assay on Cladosporium myc (10 ppm); 40% with Cladosporium myc (20 ppm); 91% in the assay on Cladosporium myc (40 ppm). In addition, the “pourcentage d'inhibition de croissance” value in the assay on Alternaria brassicae (10 ppm) turned out to be 25%; with Alternaria brassicae (20 ppm), 47%; with Alternaria brassicae (40 ppm), 83%; in the assay with Piricularia oryzae sp (10 ppm), 12%; with Piricularia oryzae sp (20 ppm), 15%; in the assay on Piricularia oryzae sp (40 ppm), 21%. Moreover, the “pourcentage d'inhibition de croissance” value is on record as 74% in the assay on Cladosporium sp (10 ppm); 95% in the assay with Cladosporium sp (20 ppm); 95% in the assay with Cladosporium sp (40 ppm); 33% in assay [2] (10 ppm); 47% in assay [2] (20 ppm); 80% in assay [2] (40 ppm). Also, the “pourcentage d'inhibition de croissance” value in the assay with Rhizoctonia solani myc (10 ppm) came to 6%; in the assay with Rhizoctonia solani myc (20 ppm) it was 7%; with Rhizoctonia solani myc (40 ppm), 64%; with Botrytis cinerea sp (10 ppm), 53%; in the assay with Botrytis cinerea sp (20 ppm) it was 12%; in the assay on Botrytis cinerea sp (40 ppm) it was 83%. In addition, the “pourcentage d'inhibition de croissance” value is listed as 66% in the assay with Fusarium culmorum sp (10 ppm); 97% with Fusarium culmorum sp (20 ppm); 97% with Fusarium culmorum sp (40 ppm); 71% in the assay on Phytophthora myc (10 ppm); 81% in the assay on Phytophthora myc (20 ppm); 78% in the assay with Phytophthora myc (40 ppm). Moreover, the “pourcentage d'inhibition de croissance” value in the assay on Botrytis cinerea myc (10 ppm) is reported as 0%; with Botrytis cinerea myc (20 ppm), 6%; in the assay with Botrytis cinerea myc (40 ppm) it was 34%.
For the substance Polymixine [reference compound], the CMI was 0,25 µg/ml with Escherichia coli CIP548; 20 µg/mL in the assay on Staphylococcus aureus; 50 µg/mL in assay [1]; 0,5 µg/ml in the assay with Salmonella sp.; 20 µg/mL in assay [3].
As to “Composé 10: pseudopeptide du pic n° 10 de Xenorhabdus nematophilus F1; Famille 2: Lys Lys Lys Lys Arg Gly; 1094 Da; structure en Figure 3 (KKKKRG; also: pseudopeptide modifications, not given here)”, the CMI was 15 µg/mL with Serratia entomophila; 1,5 µg/ml with Pseudomonas fluorescens; 7,5 µg/ml with Escherichia coli CIP548; 7,5 µg/ml with Staphylococcus aureus; 200 µg/mL in [1]; 30 µg/mL with Salmonella sp.. For the same substance, the results for the CMI in the assay on Bacillus megaterium and in the assay with Klebsiella pneumoniae were 0,75 µg/ml and 15 µg/mL, respectively.
As to “Composé 11: pseudopeptide du pic n° 11 de Xenorhabdus nematophilus F1; Famille 1: Lys Lys Lys Lys Lys Gly; 1080 Da; isomère de masse du pic 7 (KKKKKG; also: pseudopeptide modifications, not given here)”, the CMI in the assay with Serratia entomophila is 30 µg/mL; with Pseudomonas fluorescens, 1,5 µg/ml; with Escherichia coli CIP548, 15 µg/mL; in the assay on Staphylococcus aureus it was 7,5 µg/ml; in [1], 200 µg/mL; in the assay with Salmonella sp., 15 µg/mL. The CMI was 0,75 µg/ml in the assay on Bacillus megaterium and 30 µg/mL in the assay with Klebsiella pneumoniae.
